Results published in patent US20110098177A1, “METHODS AND COMPOSITIONS OF PLANT MICRONUTRIENTS” (NOVUS INTERNATIONAL INC., priority 2006, published 2011).
“Also recorded” adds a separate entry of the source.

What was measured:
Format in all cases: in vivo
Tygress tomato plants [1] = experiment: Foliar nutrient concentration 2 weeks after treatment, greenhouse tomato (Examples 4-6); settings: Mn 2.0 lb/acre
Description: (§1) The following experiments were performed in a green house during the fall of 2008 and spring of 2009 at GCREC, Balm, University of Florida. Crop set-up, procedures and variables were as follows.
(§2) Transplants of Tygress' tomato plants were planted in 2-gallon pots filled with commercial planting medium with nutrient concentration of Fe, Zn, Mn, Cu being negligible and insufficient for crop growth. Irrigation and non-micronutrient fertilizer were provided daily through microsprinklers at recommended rates for tomato production in Florida. No pesticides were used. Treatments were as described in Tables 4, 5 and 6 below.
(§3) Treatments were applied at 5 WAT (weeks after transplanting) using a water volume of 200 mL/plant. A non-ionic surfactant was added. Foliar tissue analysis was performed at 3 and 7 WAT on the non-applied newest leaves. The concentrations of N, P, K, Mg, Ca, B, Zn, Mn, Fe, and Cu in the foliar tissue were determined from foliar analysis by a commercial laboratory at 2 weeks before treatment and again at 2 weeks after treatment.
(§4) Deionized water was used for foliar applications, and other nutrients were applied as appropriate under non-limiting conditions. Marketable fruit were collected three times during the growing season, starting at 10 WAT (5 weeks after the initial treatment). Tomato fruit was graded as extra-large, large and medium. Non-marketable fruit were harvested and number and weight recorded but not sized.
(§5) Experimental design was a randomized complete block design with 6 replications. Data were analyzed using a general linear model, and means were separated using an LSD test at the 5% significance level.

Tygress tomato plants [2] = experiment: Yields of tomato fruits, greenhouse (Examples 4-6)
Description: as §1, §2, §3, §4, §5

Tygress tomato plants [3] = experiment: Foliar nutrient concentration at 6 WAT, open-field tomato (Examples 7-10); settings: 6 WAT, open field
Description: (§6) The following experiments were performed in open-field plots during the spring of 2008 at GCREC, Balm, University of Florida. Four products delivering Zn (BIOX-Z), Mn (BIOX-M), Cu (BIOX-Cu), and Fe (BIOX-Fe) were compared to other micronutrient supplement formulations in tomato and bell pepper plants.
(§7) The plot sizes for the tomato plants were 30-ft plots (15 plants per plot) and 15-ft plots were used for the bell pepper plants (30 plants per plot). Crop set-up, procedures and variables were as follows.
(§8) Transplants of ‘Tygress’ tomato plants and ‘Patriot’ bell pepper plants in the 4-true leaf stage (about 6 inches tall) were planted in raised beds in open-field plots. The cross-section of each raised bed was 28 inches wide at the top, 32 inches wide at the base, and 8 inches tall. Irrigation and non-micronutrient fertilizer were provided daily through two drip lines per bed (0.45 gal/100 ft bed/min) at recommended rates for tomato and bell pepper production in Florida. […] The height of the plants for each of the treatment groups was measured at 3 weeks after transplantation (WAT), just prior to treatment with the experimental foliar fertilizers.
(§9) All foliar fertilizers except BIOX-CM were applied to the various treatment groups at 3 weeks after transplantation (WAT) and again at 5 WAT. The BIOX-CM treatment was applied at 4 and 5 WAT. The working water volume was 60 gal/acre and a non-ionic surfactant (Ad-Spray 80) was added in the amount of 2 pints/100 gal water. All plots were sprayed with sprayers pressurized at 25 psi and the canopies of both crops were covered with the micronutrient solutions. Treated plots were isolated during foliar fertilizer application to avoid the cross-contamination of other treatments on adjoining plots.
(§10) Leaf samples were collected from the most recent mature leaves from each plant at 6 WAT (2 weeks after initial treatment). Foliar tissue analysis was performed by a commercial laboratory to determine the concentration of N, P, K, Mg, Ca, B, Zn, Mn, Fe, and Cu. Tomato marketable fruit weights were collected at 10 and 12 WAT, and the fruits were graded according to USDA standards. Pepper marketable fruit weights were determined beginning at 5 WAT over 5 weekly harvests. Fruit mineral analysis (N, P, K, Mg, Ca, B, Zn, Mn, Fe, and Cu) was performed on samples from the tomato harvest.
(§11) The experimental design was a randomized complete block design with 5 replications for each treatment. All comparison data were analyzed using a general linear model and the means of each treatment were separated with a Fisher's protected LSD test at the 5% significance level.

[4] = system: Patriot bell pepper plants; experiment: Foliar nutrient concentration at 6 WAT, open-field bell pepper (Examples 7-10); settings: 6 WAT; open field; product rate as Table 17
Description: as §6, §7, §8, §9, §10, §11

Tygress tomato plants [5] = experiment: Marketable yield, open-field tomato (Examples 7-10); settings: open field; lb/acre/season: BIOX-Z 1.3, Cu 6.7, M 23.0, Fe 3.2, INC 4.0, INZ 0.6, CM 10.0, GZ 1.0, GF 4.0, EDZ 1.4, EDM 23.0
Description: as §6, §7, §8, §9, §10, §11

[6] = system: Patriot bell pepper plants; experiment: Marketable yield, open-field bell pepper (Examples 7-10); settings: open field; lb/acre/season: BIOX-Z 1.3, Cu 6.7, M 23.0, Fe 3.2, INC 4.0, INZ 0.6, CM 10.0, GZ 1.0, GF 4.0, EDZ 1.4, EDM 23.0
Description: as §6, §7, §8, §9, §10, §11

Tygress tomato plants [7] = experiment: Nutrient concentration of tomato fruits at 10 WAT, open field (Examples 7-10); settings: 10 WAT, open field
Description: as §6, §7, §8, §9, §10, §11

Question: With EDTA chelated manganese [BIOX-EDM] as the substance, how does the “B concentration in tomato leaves” value (Tygress tomato plants [1]; 2 weeks after Mn treatment) read?
Answer: 22 ppm

Question: What about the “Ca concentration in tomato leaves” value (Tygress tomato plants [1]; 2 weeks after Mn treatment) of the same substance?
Answer: 0.6%

Question: And the “Cu concentration in tomato leaves” value (Tygress tomato plants [1]; 2 weeks after Mn treatment)?
Answer: 5 ppm

Question: What about the “Fe concentration in tomato leaves” value (Tygress tomato plants [1]; 2 weeks after Mn treatment) of the same substance?
Answer: 115 ppm

Question: What about the “K concentration in tomato leaves” value (Tygress tomato plants [1]; 2 weeks after Mn treatment) of the same substance?
Answer: 3.3%

Question: And the “Mg concentration in tomato leaves” value (Tygress tomato plants [1]; 2 weeks after Mn treatment)?
Answer: 0.3%

Question: And the “N concentration in tomato leaves” value (Tygress tomato plants [1]; 2 weeks after Mn treatment)?
Answer: 3.3%

Question: What about the “P concentration in tomato leaves” value (Tygress tomato plants [1]; 2 weeks after Mn treatment) of the same substance?
Answer: 0.5%

Question: And the “Zn concentration in tomato leaves” value (Tygress tomato plants [1]; 2 weeks after Mn treatment)?
Answer: 32 ppm

Question: What about the “Foliar Mn concentration” value (Tygress tomato plants [1]; tomato leaves 2 weeks after Mn treatment) of the same substance?
Answer: 78.5 a ppm

Question: And the “Marketable tomato yield compared with non-treated control (in words)” value (Tygress tomato plants [2]; BIOX-M at 1.23 lb/acre or more, BIOX-EDM at 2.0 lb/acre, Mn-sulfate at 1.0 lb/acre)?
Answer: significantly higher than the non-treated control

Question: What about the Marketable yield (Tygress tomato plants [2]; Mn 2.0 lb/acre, tomato fruits) of the same substance?
Answer: 4.4 a lb/plant

Question: What about the “Foliar Zn concentration of tomato plants, statement” value (Tygress tomato plants [3]) of the same substance?
Answer: significant increase

Question: What about the “Foliar concentration of K of tomato plants compared to control, statement” value (Tygress tomato plants [3]) of the same substance?
Answer: significant increase

Question: And the “Foliar concentration of Mn of tomato plants, statement” value (Tygress tomato plants [3])?
Answer: significant increase

Question: What about the “Foliar concentration of P of tomato plants compared to control, statement” value (Tygress tomato plants [3]) of the same substance?
Answer: significant decrease

Question: What about the “Foliar B concentration of tomato plants” value (Tygress tomato plants [3]; product rate as Table 17) of the same substance?
Answer: 60 ppm

Question: And the “Foliar Ca concentration of tomato plants” value (Tygress tomato plants [3]; product rate as Table 17)?
Answer: 2.2%

Question: And the “Foliar Cu concentration of tomato plants” value (Tygress tomato plants [3]; product rate as Table 17)?
Answer: 409 ppm

Question: And the “Foliar Fe concentration of tomato plants” value (Tygress tomato plants [3]; product rate as Table 17)?
Answer: 100 ppm

Question: And the “Foliar K concentration of tomato plants” value (Tygress tomato plants [3]; product rate as Table 17)?
Answer: 6.2 a %

Question: What about the “Foliar Mg concentration of tomato plants” value (Tygress tomato plants [3]; product rate as Table 17) of the same substance?
Answer: 0.82%

Question: What about the “Foliar Mn concentration of tomato plants” value (Tygress tomato plants [3]; product rate as Table 17) of the same substance?
Answer: 348 b ppm

Question: And the “Foliar N concentration of tomato plants” value (Tygress tomato plants [3]; product rate as Table 17)?
Answer: 4.9%

Question: And the “Foliar P concentration of tomato plants” value (Tygress tomato plants [3]; product rate as Table 17)?
Answer: 0.22 ab %

Question: What about the “Foliar Zn concentration of tomato plants” value (Tygress tomato plants [3]; product rate as Table 17) of the same substance?
Answer: 333 a ppm

Question: And the “Foliar B concentration of bell pepper plants” value [4]?
Answer: 64 ppm

Question: What about the “Foliar Ca concentration of bell pepper plants” value [4] of the same substance?
Answer: 4.4%

Question: What about the “Foliar Cu concentration of bell pepper plants” value [4] of the same substance?
Answer: 411 ppm

Question: And the “Foliar Fe concentration of bell pepper plants” value [4]?
Answer: 138 ppm

Question: What about the “Foliar K concentration of bell pepper plants” value [4] of the same substance?
Answer: 3.6%

Question: What about the “Foliar Mg concentration of bell pepper plants” value [4] of the same substance?
Answer: 0.52%

Question: What about the “Foliar Mn concentration of bell pepper plants” value [4] of the same substance?
Answer: 563 ppm

Question: And the “Foliar N concentration of bell pepper plants” value [4]?
Answer: 4.4%

Question: What about the “Foliar P concentration of bell pepper plants” value [4] of the same substance?
Answer: 0.28%

Question: And the “Foliar Zn concentration of bell pepper plants” value [4]?
Answer: 67 ppm

Question: What about the “Marketable yield, Tomato” value (Tygress tomato plants [5]) of the same substance?
Answer: 14.6 b ton/acre

Question: What about the “Marketable yield, Bell Pepper” value [6] of the same substance?
Answer: 7.6 ton/acre

Question: What about the “Nutrient concentrations in tomato fruits, statement” value (Tygress tomato plants [7]) of the same substance?
Answer: significant increases in micronutrient concentrations of Zn, Mn, Fe, and Cu; also recorded: highest Mn concentration in the resulting tomato fruit

Question: And the “B concentration of tomato fruits” value (Tygress tomato plants [7]; product rate as Table 17)?
Answer: 24 ppm

Question: And the “Ca concentration of tomato fruits” value (Tygress tomato plants [7]; product rate as Table 17)?
Answer: 0.2%

Question: What about the “Cu concentration of tomato fruits” value (Tygress tomato plants [7]; product rate as Table 17) of the same substance?
Answer: 27 a ppm

Question: What about the “Fe concentration of tomato fruits” value (Tygress tomato plants [7]; product rate as Table 17) of the same substance?
Answer: 110 a ppm

Question: What about the “K concentration of tomato fruits” value (Tygress tomato plants [7]; product rate as Table 17) of the same substance?
Answer: 8.6%

Question: What about the “Mg concentration of tomato fruits” value (Tygress tomato plants [7]; product rate as Table 17) of the same substance?
Answer: 0.39%

Question: And the “Mn concentration of tomato fruits” value (Tygress tomato plants [7]; product rate as Table 17)?
Answer: 60 a ppm

Question: And the “N concentration of tomato fruits” value (Tygress tomato plants [7]; product rate as Table 17)?
Answer: 4.3%

Question: What about the “P concentration of tomato fruits” value (Tygress tomato plants [7]; product rate as Table 17) of the same substance?
Answer: 0.63%

Question: And the “Zn concentration of tomato fruits” value (Tygress tomato plants [7]; product rate as Table 17)?
Answer: 939 a ppm
